Patent publication US6713274B2, “Method for identifying modulators of sulfotransferase activity” (The Regents of the University of California, priority 2002, dated 2004)

Experiments:
GST-3 = biological target: T1, GST-3 (Homo sapiens, UniProt Q8NCG5); test: Dot-blot assay for GST-3 (sulfation of β-GlcNAc-PAA with 35S-PAPS); type: biochemical; conditions: FIG. 5B Lineweaver-Burk plot
T1 sequence (Q8NCG5 1-386): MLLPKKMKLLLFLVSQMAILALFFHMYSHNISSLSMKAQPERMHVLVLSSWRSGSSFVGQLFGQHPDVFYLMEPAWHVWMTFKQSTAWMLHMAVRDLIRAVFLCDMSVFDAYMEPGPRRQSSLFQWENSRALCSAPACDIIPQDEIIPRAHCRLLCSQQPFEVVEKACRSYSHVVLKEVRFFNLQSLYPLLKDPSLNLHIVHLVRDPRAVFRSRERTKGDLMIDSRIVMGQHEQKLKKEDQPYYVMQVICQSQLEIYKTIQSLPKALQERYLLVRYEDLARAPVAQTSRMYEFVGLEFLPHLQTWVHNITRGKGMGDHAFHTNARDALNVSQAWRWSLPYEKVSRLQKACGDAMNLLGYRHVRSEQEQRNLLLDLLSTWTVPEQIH
Protocol: A typical assay included an appropriate volume of enzyme solution, 0.6-1.0 μg of β-GlcNAc-PAA, 0.1% Triton X-100, 10% glycerol, 4 mM Mg(OAc)2, 10 mM NaF, 1 mM ATP, in 30 mM HEPES-NaOH (pH 6.0), diluted to a total volume of 25 μL in a 96-well plate. Reactions were initiated with 2.0 μM ^35S-PAPS (0.1-0.5 μCi per reaction), incubated at 25° C. for 2 h, and terminated with 30 μL of MeOH. A 15-μL aliquot was removed from each well and diluted 100-fold, and 15-25 μL of the solution were transferred to the wells of the dot-blot apparatus. A vacuum was applied, and the wells were washed and eluted as described below. Control reactions with heat-killed enzyme were included to monitor background binding of ^35S-PAPS and ^35S-SO4^2− to the membrane after washing.
(§1) Hybond-N+ membranes were pre-wetted with H2O and Hybond-P membranes were pre-wetted with MeOH before assembling the dot-blot apparatus. The quenched and diluted reactions were added to the wells, and a vacuum was applied to load products onto the membrane. To elute ^35S-PAPS while retaining ^35S-labeled heparin or GlcNAc-PAA on the membrane, the wells were washed twice with 40 μL of PAPS elution buffer (EB) ((NH4)2SO4 pH 3.0), while maintaining a gentle vacuum. […] The amount of ^35S-labeled product associated with the membrane was then quantified by phosphorimaging.

[1] = biological target: T2, sulfotransferase domain of human NDST-1 (Homo sapiens, UniProt P52848); test: Dot-blot assay for NDST-1 (sulfation of de-N-sulfated heparin with 35S-PAPS); type: biochemical; conditions: FIG. 5A Lineweaver-Burk plot
T2 construct: A plasmid containing the sulfotransferase domain of human NDST-1 fused to glutathione S-transferase; glutathione S-transferase (cleaved yes); made in house
T2 sequence (P52848 599-882 limits assumed): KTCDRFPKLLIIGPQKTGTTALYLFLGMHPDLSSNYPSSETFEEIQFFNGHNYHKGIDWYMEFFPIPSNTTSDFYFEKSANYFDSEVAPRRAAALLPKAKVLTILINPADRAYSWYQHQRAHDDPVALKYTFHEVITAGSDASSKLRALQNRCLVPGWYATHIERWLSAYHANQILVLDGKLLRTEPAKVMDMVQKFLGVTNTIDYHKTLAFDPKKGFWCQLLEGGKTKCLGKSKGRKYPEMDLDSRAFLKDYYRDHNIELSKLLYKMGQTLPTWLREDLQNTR
Protocol: For the NDST-1 assay, de-N-sulfated heparin (0.02-0.1 mg) and 0.1 μg of enzyme were added to 50 mM HEPES-NaOH (pH 7.0), 0.15 M NaCl, 0.75 mg/mL protamine, 0.4% Triton X-100, 15% glycerol in a total volume of 25 μL in a 96-well plate. Reactions were initiated with 0.15 μM ^35S-labeled PAPS (“^35S-PAPS”)(0.1-0.5 μCi per reaction), incubated at 25° C. for 15 min, and terminated by the addition of 30 μL of MeOH. A 15-μL aliquot was removed from each well and diluted 100-fold, and 15-25 μL were then transferred to the wells of the dot-blot apparatus. A vacuum was applied, and the wells were washed and eluted as described below. Control reactions with heat-killed (100° C., 5 min) enzyme were included to monitor background binding of ^35S-PAPS and ^35S-SO4^2− to the membrane after washing.
as §1

mode of enzyme inhibition (double reciprocal plots of signal versus PAPS concentration) (GST-3): competitive inhibitor
mode of enzyme inhibition (double reciprocal plots of signal versus PAPS concentration) [1]: competitive inhibitor
Structure (SMILES): Nc1ncnc2c1ncn2[C@@H]1O[C@H](COP(=O)(O)O)[C@@H](OP(=O)(O)O)[C@H]1O [3′,5′-ADP]
